The numbers were not newly measured in patent US7282218B2, “pH sensitive polymer for inhibiting transformation in drugs” (Council of Scientific and Industrial Research, priority 2003, dated 2007), which cites them from elsewhere.

For data set [1] the following is noted: humans.
For data set [2] the following is noted: amorphous vs crystalline.

On to `CO/N=C(\C(=O)N[C@@H]1C(=O)N2C(C(=O)OC(C)OC(C)=O)=C(COC(N)=O)CS[C@H]12)c1ccco1` (some centres unmarked) [Cefuroxime axetil], for which, in data set [1], the bioavailability is on record as 32-50%.
As for `CO[C@@H]1[C@@H](OC(N)=O)[C@@H](O)[C@H](Oc2ccc3c(O)c(NC(=O)c4ccc(O)c(CC=C(C)C)c4)c(=O)oc3c2C)OC1(C)C` [novobiocin], the “solubility of amorphous form relative to the crystalline form” value in data set [2] is on record as 10 times.
